Measured values taken from patent US10701939B2, “Aqueous suspension agrochemical composition” (KUMIAI CHEMICAL INDUSTRY CO., LTD., priority 2015, dated 2020).

Test system: wheat powdery mildew (Erysiphe graminis)
Experiment: Reference Example: efficacy reinforcement by adjuvant, control of wheat powdery mildew on potted wheat
Type: in vivo
Conditions: pyribencarb water-dispersible granules 30 g/ha, no adjuvant added (0 ppm); day 7 after inoculation
Procedure: Pyribencarb (40 parts), sodium lignin sulfonate (5 parts), polyoxyethylene alkyl aryl ether (1 part), calcium carbonate (54 parts) and water (10 parts) were mixed, kneaded, extruded, and granulated, and the resultant granules were dried in a fluidized bed dryer to obtain water-dispersible granules. Thus obtained water-dispersible granules of pyribencarb were adjusted so as to have a predetermined concentration, and the adjuvant shown in the following Table 2 was added to the diluted solution to a concentration of 100 ppm to prepare a spray solution. In addition, a spray solution containing an adjuvant at a concentration of 100 ppm without containing water-dispersible granules of pyribencarb were separately prepared. Ten wheat seeds (variety: Norin No. 61) were sowed in a plastic cup having a diameter of 5.5 cm, and after grown for 7 days in a greenhouse, 25 ml/m^2 (30 g of pyribencarb per 1 ha) was sprayed onto the wheat at 1.5 to 2 leaf stage. After air-drying, conidia of wheat powdery mildew (Erysiphe graminis) were sprayed and inoculated, and the plant was placed in a greenhouse. On day 7 after inoculation, the disease onset area of the first leaves in the pot in the spray solution-treated region and the untreated region were indexed and investigated according to the criteria in Table 1 below. […]

COC(=O)NCc1cc(/C(C)=N/OCc2cccc(C)n2)ccc1Cl [pyribencarb, methyl={2-chloro-5-[(E)-1-(6-methyl-2-pyridylmethoxyimino)ethyl]benzyl}carbamate]
Control effect on wheat powdery mildew (control value): 33.2%
